Consider ten compounds from PMC5974779, “Prediction of Drug-Induced Hepatotoxicity Using Long-Term Stable Primary Hepatic 3D Spheroid Cultures in Chemically Defined Conditions” (Toxicological Sciences, 2018).

Like-named read-outs stand apart in the source and are kept apart here.

The conditions of data set [1]: therapeutic total cmax; ref PMID; cited from earlier work.
For data set [2] the following is noted: ref DrugBank and Prescribers' Digital Reference database; cited from earlier work.
The subject of data set [3] is PHH spheroids (hanging-drop). The note with it: cited from earlier work; for Hanging-drop spheroids (Proctor 2017) 100x: PHH hanging-drop spheroids, 100x Cmax, ref Proctor 2017.
The test system of data set [4] is PHH 2D sandwich cultures. The note with it: cited from earlier work.
Data set [5] deals with primary human hepatocytes (PHH) 3D spheroids.
The subject of data set [6] is clinical DILI in man. The following applies: cited from earlier work.
Data set [7] relates to PHH micropatterned cocultures with murine embryonic fibroblasts. The following applies: cited from earlier work.
The mark [8] stands for this setting: PHH 2D sandwich cultures, 100x Cmax, ref Xu 2008.
Where [9] appears, read: FDA drug labeling DILI score, ref Chen et al., 2011.
The mark [10] stands for this setting: clinical DILI classification in man (POS/NEG).
Setting [11] is: clinical DILI classification used in this study, Supplementary Table 2, ref Chen et al., 2011, Guo et al., 2005, O'Brien et al., 2006, Sakatis et al., 2012, Suzuki et al., 2010, Xu et al., 2008.
[12] abbreviates: clinical DILI classification, Supplementary Table 1, ref Chen et al., 2011, Guo et al., 2005, O'Brien et al., 2006, Sakatis et al., 2012, Suzuki et al., 2010, Xu et al., 2008.
Setting [13] is: clinical DILI classification, ref Xu et al. (2008).
[14] abbreviates: clinical hepatotoxicity classification, ref O'Brien et al. (2003).
Where [15] appears, read: reported pattern of liver damage, Supplementary Table 2, ref literature.
Where [16] appears, read: micropatterned cocultures, 100x Cmax, ref Khetani 2013.

For the compound `Cc1cn([C@H]2C=C[C@@H](CO)O2)c(=O)[nH]c1=O` [Stavudine], the Cmax in data set [1] is 3.46 µM. Also, in data set [2], the “Extent of hepatic metabolism” value is recorded as “Minimal”. Besides, in data set [3], the “Hanging-drop spheroids (Proctor 2017) 100x” value (“Hanging-drop spheroids” below) is recorded as “Negative”. In addition, the “2Dsw (Xu 2008) 100x” value in data set [4] (setting [8]) is given as “Negative”. In data set [5], the “Chemically defined spheroids (this study) 20x” value (“Chemically defined spheroids” below) was “Negative”. Besides, in data set [6] (DILI classification score, ref Suzuki et al. (2010)), the “Suzuki et al. (2010)” value is 2. Also, the “FDA (Severity)” value in data set [6] (FDA drug labeling DILI concern, ref Chen et al., 2011) is reported as “most DILI concern”. For the same compound, the “FDA (0-8)” value in data set [6] (setting [9]) is 8. Also, the DILI in vivo entry in data set [6] (setting [10]) and in data set [6] (setting [12]) was “POS” throughout. The Classified as entry in data set [6] (setting [11]) is on record as “POS”. Further, the “Xu et al. (2008)” value in data set [6] (setting [13]) is given as “Positive”. In addition, the “O'Brien et al. (2003)” value in data set [6] (setting [14]) is “Severely”. In addition, in data set [6] (clinical hepatotoxicity classification, ref Sakatis et al. (2012)), the “Sakatis et al. (2012)” value is reported as “Hepatotoxic”. For the same compound, the “Type of DILI” value in data set [6] (setting [15]) is given as “Cholestatic injury or Mixed hepatitis”.
In the case of `C=C[C@H]1C[N@@]2CC[C@H]1C[C@H]2[C@H](O)c1ccnc2ccc(OC)cc12` [Quinine], the Cmax in data set [1] was 9.25 µM. For the same compound, the “MPCC (Khetani 2013) 100x” value in data set [7] is on record as “Positive”. Further, the “2Dsw (Xu 2008) 100x” value in data set [4] is recorded as “Positive”. Further, the “Chemically defined spheroids” value in data set [5] is “Positive”.
As for `CC(=O)[C@H]1CC[C@H]2[C@@H]3CCC4=CC(=O)CC[C@]4(C)[C@H]3CC[C@]12C` [Progesterone], the Cmax in data set [1] was 0.193 µM. Further, the “MPCC (Khetani 2013) 100x” value in data set [7] (setting [16]) is given as “Negative”. For the same compound, the “2Dsw (Xu 2008) 100x” value in data set [4] (setting [8]) is “Negative”. Besides, the “Chemically defined spheroids” value in data set [5] is recorded as “Negative”. Also, in data set [6] (in vivo), the Classified as result was “NEG”, the “Clinical DILI class (panel heading of Figure 4)” value (from here on “Clinical DILI class”) is recorded as “DILI negative”, the DILI in vivo entry was “NEG” and the “FDA (0-8)” value was 2. In data set [6] (in vivo), the “Sakatis et al. (2012)” value is given as “non-hepatotixic”, the “Suzuki et al. (2010)” value was 1, the “Type of DILI” value is listed as “Non-hepatotoxic” and the “Xu et al. (2008)” value is “Positive”.
On to `Cc1cccc(Nc2ccccc2C(=O)O)c1C` [Mefenamic Acid], for which the Cmax in data set [1] is 26.9 µM. The “MPCC (Khetani 2013) 100x” value in data set [7] (setting [16]) was “Positive”. Moreover, the “Extent of hepatic metabolism” value in data set [2] was “Extensive”. Besides, the “2Dsw (Xu 2008) 100x” value in data set [4] (setting [8]) is recorded as “Positive”. The “Chemically defined spheroids” value in data set [5] is recorded as “Positive”. Also, in data set [6] (in vivo), the Classified as result is on record as “POS”, the “Clinical DILI class” value is “Severe DILI”, the DILI in vivo result is listed as “POS” and the “FDA (0-8)” value is listed as 8. Further, in data set [6] (in vivo), the “Sakatis et al. (2012)” value is “Hepatotoxic”, the “Type of DILI” value is listed as “Hepatocellular injury” and the “Xu et al. (2008)” value was “Positive”.
Consider `CN1C(C(=O)Nc2ccccn2)=C(O)c2ccccc2S1(=O)=O` [Piroxicam], for which the Cmax in data set [1] is 5.13 µM. For the same compound, the “MPCC (Khetani 2013) 100x” value in data set [7] (setting [16]) is listed as “Negative”. Further, the “Extent of hepatic metabolism” value in data set [2] is listed as “Extensive”. Moreover, the “2Dsw (Xu 2008) 100x” value in data set [4] (setting [8]) is listed as “Negative”. For the same compound, the “Chemically defined spheroids” value in data set [5] was “Negative”. In addition, in data set [6] (in vivo), the Classified as entry was “POS”, the “Clinical DILI class” value is “High DILI concern”, the DILI in vivo result is on record as “POS” and the “FDA (0-8)” value is listed as 3. Further, in data set [6] (in vivo), the “FDA (Severity)” value is listed as “less DILI concern”, the “Guo et al. (2005)” value is given as 2, the “O'Brien et al. (2003)” value is recorded as “Severely” and the “Sakatis et al. (2012)” value was “Hepatotoxic”. Further, in data set [6] (in vivo), the “Suzuki et al. (2010)” value was 1; the “Type of DILI” value is on record as “Hepatocellular injury, Cholestatic injury or Mixed hepatitis”; the “Xu et al. (2008)” value is given as “Positive”.
Consider `CC(c1cc2ccccc2s1)N(O)C(N)=O` (centres unmarked) [Zileuton], for which the Cmax in data set [1] is 13.1 µM. The “Extent of hepatic metabolism” value in data set [2] is listed as “Extensive”. For the same compound, in data set [3], the “Hanging-drop spheroids” value was “Negative”. In addition, the “hepatotoxicity detection in 2D sandwich cultures of PHH” value in data set [4] (100× cmax, 24 h, high content imaging, ref Xu et al., 2008) is “flagged as hepatotoxic”. In addition, the “2Dsw (Xu 2008) 100x” value in data set [4] (setting [8]) is “Positive”. Moreover, the “reactive oxygen species levels in 2D sandwich cultures of PHH” value in data set [4] (ref Xu et al., 2008) is listed as “only slight increases in reactive oxygen species levels”. Further, in data set [5], the “Chemically defined spheroids” value is given as “Negative” and the “hepatotoxicity evaluation in CD-spheroids” value is given as “predicted to be DILI negative”. Besides, in data set [6] (in vivo), the Classified as entry is on record as “POS”, the “Clinical DILI class” value is reported as “High DILI concern”, the DILI in vivo result was “POS” and the “FDA (0-8)” value is on record as 5. In data set [6] (in vivo), the “FDA (Severity)” value is “most DILI concern”, the “O'Brien et al. (2003)” value is on record as “Severely”, the “Sakatis et al. (2012)” value is listed as “Hepatotoxic” and the “Type of DILI” value is “Hepatocellular injury”. The “Xu et al. (2008)” value in data set [6] (in vivo) is “Positive”.
As to `CN(C)CCCN1c2ccccc2Sc2ccc(Cl)cc21` [Chlorpromazine], the Cmax in data set [1] is 0.84 µM. For the same compound, the “Extent of hepatic metabolism” value in data set [2] is “Extensive”. Also, in data set [3], the “Hanging-drop spheroids” value is reported as “Positive”. Moreover, the “2Dsw (Xu 2008) 100x” value in data set [4] (setting [8]) is “Positive”. Besides, in data set [5], the “Chemically defined spheroids” value is given as “Positive”. Also, in data set [6] (in vivo), the Classified as result was “POS”, the “Clinical DILI class” value is reported as “High DILI concern”, the DILI in vivo entry is “POS” and the “FDA (0-8)” value was 2. Further, in data set [6] (in vivo), the “Guo et al. (2005)” value is given as 3, the “O'Brien et al. (2003)” value is given as “Moderately”, the “Sakatis et al. (2012)” value is listed as “Hepatotoxic” and the “Suzuki et al. (2010)” value is recorded as 2. In data set [6] (in vivo), the “Type of DILI” value was “Cholestatic injury or Mixed hepatitis” and the “Xu et al. (2008)” value was “Positive”.
`CCOC(=O)c1ncn2c1CN(C)C(=O)c1cc(F)ccc1-2` [Flumazenil]: the Cmax in data set [1] is 1.12 µM. Besides, the “Extent of hepatic metabolism” value in data set [2] is recorded as “Extensive”. For the same compound, the “Hanging-drop spheroids” value in data set [3] is given as “Negative”. Also, in data set [4] (setting [8]), the “2Dsw (Xu 2008) 100x” value is listed as “Negative”. Further, in data set [5], the “Chemically defined spheroids” value is reported as “Negative”. Besides, the “FDA (0-8)” value in data set [6] (setting [9]) is on record as 0. Moreover, the DILI in vivo entry in data set [6] (setting [10]) and in data set [6] (setting [12]) was “NEG” in each case. For the same compound, in data set [6] (setting [11]), the Classified as entry was “NEG”. Further, in data set [6] (setting [13]), the “Xu et al. (2008)” value is reported as “Negative”. Also, the “O'Brien et al. (2003)” value in data set [6] (setting [14]) was “Non-toxic”. In addition, in data set [6] (setting [15]), the “Type of DILI” value is recorded as “Non-hepatotoxic”.
`O=C1CN(/N=C/c2ccc(-c3ccc([N+](=O)[O-])cc3)o2)C(O)=N1` [Dantrolene]: the Cmax in data set [1] is 3.69 µM. Further, the “Extent of hepatic metabolism” value in data set [2] was “Extensive”. In addition, in data set [3] (100× cmax, 2 weeks, ref Proctor et al., 2017), the “hepatotoxicity classification in hanging-drop PHH spheroids” value is “previously missed”. In data set [3], the “Hanging-drop spheroids” value is listed as “Negative”. For the same compound, the “2Dsw (Xu 2008) 100x” value in data set [4] (setting [8]) was “Positive”. In data set [5], the “Chemically defined spheroids” value is listed as “Positive” and the “hepatotoxicity evaluation in CD-spheroids” value is “revealed the DILI liability”. Moreover, in data set [6] (in vivo), the Classified as result is given as “POS”, the “Clinical DILI class” value is “Severe DILI”, the DILI in vivo entry is given as “POS” and the “FDA (0-8)” value is 8. Further, in data set [6] (in vivo), the “FDA (Severity)” value is on record as “most DILI concern”, the “Guo et al. (2005)” value is given as 3, the “O'Brien et al. (2003)” value was “Severely” and the “Sakatis et al. (2012)” value is listed as “Hepatotoxic”. For the same compound, in data set [6] (in vivo), the “Type of DILI” value is reported as “Hepatocellular injury or Mixed hepatitis” and the “Xu et al. (2008)” value is on record as “Positive”.
Regarding `CCN(CC)CC(=O)Nc1c(C)cccc1C` [Lidocaine], in data set [7] (setting [16]), the “MPCC (Khetani 2013) 100x” value is reported as “Positive”. The “2Dsw (Xu 2008) 100x” value in data set [4] (setting [8]) was “Negative”.
